ChEMBL document CHEMBL3734655, “Identification of camphor derivatives as novel M2 ion channel inhibitors of influenza A virus” (Medchemcomm, 2015)
Active and inactive are the calls of the source. No cut-off for these calls is given here.

Tests used:
[1] = tested on: Influenza A virus; assay: Antiviral activity against M2 ion channel S31N mutant expressing amantadine-resistant Influenza A virus infected in MDCK cells preincubated for 30 mins followed by viral infection measured after 72 hrs by CCK-8 assay; format: functional, organism-based
[2] = tested on: Influenza A virus; assay: Antiviral activity against amantadine-resistant Influenza A virus (A/WSN/1933) infected in MDCK cells preincubated for 30 mins followed by viral infection measured after 72 hrs by CCK-8 assay; format: functional, organism-based; conditions: A/WSN/1933(H1N1)

Row | SMILES | Activity [1] | Activity [2]
1 | C[C@H]1[C@H]([C@H](C)N)C[C@@H]2C[C@H]1C2(C)C | inactive | inactive
2 | C[C@@H](N)[C@H]1C[C@H]2CC[C@]1(C)C2(C)C.Cl | inactive | inactive
3 | CC1(C)[C@@H]2CC[C@@]1(C)[C@@H](CN)C2 | inactive | inactive
4 | N[C@H]1C[C@@H]2CC[C@H]1C2 | inactive | inactive
5 | CC1(C)[C@@H]2CC[C@@]1(C)[C@@H](N)C2 (relative stereo) | inactive | inactive
6 | CC1(C)[C@H]2CC[C@](C)(C2)[C@H]1CN | inactive | inactive
7 | C[C@H]1[C@H](N)C[C@@H]2C[C@H]1C2(C)C | inactive | inactive
8 | NC1CC2CCC1C2 (stereo not drawn) | inactive | inactive
9 | C[C@H]1[C@H](CN)C[C@@H]2C[C@H]1C2(C)C | inactive | inactive
